Data as given in patent publication US10206900B2, “Treatments for fibrotic diseases” (MOR RESEARCH APPLICATIONS LTD., priority 2013, dated 2019).

How the values were obtained:
MMP-9 = MMP-9 activity by gelatin zymography in RPE cell supernatants; assay type: cell-based; conditions: RPE cells, SB431542 10 μM pretreatment, TGF-β1 2.5 ng/ml, 24 hours
Experimental: FIGS. 2A-2C TAK1 regulates RPE cells EMT phenotype upon TGF-β stimulation. FIG. 2A: RPE cells were serum-starved for 16 hours, pretreated with 5Z-7-oxozeaenol (1 μM) or left untreated for 1 hour. The cells were then treated with TGF-β1 (2.5 ng/ml) as described herein for 24 h and immunostained with α-SMA antibodies (red) and DAPI (blue). Representative photographs of three independent experiments. The histogram in the bottom panel represents quantification of α-SMA antibody pixel intensity. FIG. 2B: RPE cells were serum-starved for 16 hours, then treated with mitomycin C (10 ng/ml) for 3 h. Thereafter, pretreated with 5Z-7-oxozeaenol (1 μM) or Dimethyl sulfoxide (DMSO) for 1 hour. Following this process a scratch was performed in the cell monolayer and the serum free medium was supplemented with TGF-β1 (2.5 ng/ml) or left unsupplemented. Scratches were photo-documented at the indicated times (top panel) and their width was measured using Image-J software. […] Bars are Mean±SD. FIG. 2C: RPE cells were serum-starved for 16 hours then pretreated with 5Z-7-oxozeaenol (1 μM) or SB431542 (10 μM), or DMSO for 1 hour. […] Total MMP-9 activities were processed by gelatin zymography (top panel) and the band intensity values were calculated by Quantity One® 1-D analysis software. […] Data is expressed as the Mean±SD.

RPE cells = assay: Cell size / morphology (rhodamine-phalloidin staining) upon TGF-β1; assay type: cell-based; conditions: 5Z-7-oxozeaenol 1 μM or SB431542 10 μM prior to TGF-β1
Experimental: FIG. 3A: RPE cells were plated on fibronectin-coated glass coverslips, serum-starved for 16 hours, pretreated with 5Z-7-oxozeaenol (1 μM) or SB431542 (10 μM), or DMSO for 1 hour, then treated with or without TGF-β1 for 2 days. Following treatment, the cells were stained with rhodamine-phalloidin (actin fibers-red) and DAPI (blue) and visualized by confocal microscopy. Scale bars: […]. FIG. 3B: Serum-starved RPE cells pretreated with 5Z-7-oxozeaenol (1 μM) or DMSO for 1 hour, and were exposed to TGF-β as in FIG. 3A. Total RNA was extracted at each time point and qPCR was performed. Transcription levels of CTGF were determined after 6 h, 16 h and 24 h. Bars represent the specific mRNA amount relative to GAPDH mRNA in the same samples. All experiments were performed in triplicates. A representative histogram from two independent experiments is shown. FIG. 3C: RPE cells were plated and treated as in FIG. 3A. Following treatment, the cells were immunostained with E-cadherin antibodies (green) and DAPI (blue). Representative photographs of two independent experiments are shown. In addition to the secretion of MMPs and increased migratory capacity, several morphological changes underlie EMT (Lamouille et al., I 2007, 178:437-451). […]

## NC(=O)c1ccc(-c2nc(-c3ccc4c(c3)OCO4)c(-c3ccccn3)[nH]2)cc1 [SB431542]
MMP-9
  activation of MMP-9 by TGF-β1: completely abolished the activation of MMP-9
RPE cells
  TGF-β1-induced increase in cell size (hypertrophic RPE cells): abolished the increase in cell size
